Measurements as given in paper PMC8400257, “2-Phenoxy-3-Trichloromethylquinoxalines Are Antiplasmodial Derivatives with Activity against the Apicoplast of Plasmodium falciparum” (Pharmaceuticals, 2021).
“Also recorded” adds a separate entry of the source.

Key:
[1] = tested on: Plasmodium falciparum blood stage parasites; test: Growth assay over three life cycles (delayed death); assay type: cell-based; settings: 0.2 µM; 48, 96, 144 h
Description: To determine the impact of (3i) on apicoplast biogenesis, parasites were treated for 48 h with 0.2 µM of (3i) or 0.2 µM of (2i) (a control of (3i) for which the active CCl3 was replaced by a methyl CH3 group) and compared to untreated parasites by immunofluorescence assay. […] In order to determine if the apicoplast is the main target of (3i), we performed a growth assay over three life cycles to assess a potential delayed death effect, one of the major signature for compounds affecting apicoplast. […] The second interpretation could be that, unlike chloramphenicol or doxycycline, which cause a delayed death phenotype on Plasmodium, (3i) could act like fosmidomycin or actinonin and cause a rapid death phenotype.
To observe a potential effect of delayed death of the molecule on the parasite, Plasmodium was maintained on three life cycles (48 h). […] Fluorescence from each well was measured with TECAN infinite M200 plate reader (excitation: 485 nm, emission: 538 nm and integration time: 1000 μs). […] A graph was obtained by performing the ration of the treated culture fluorescence intensity on the untreated culture fluorescence intensity (n = 3).

[2] = tested on: P. falciparum (NF135 strain) hepatic exoerythrocytic forms; test: Liver stage development in infected primary human hepatocytes; assay type: cell-based, Plasmodium falciparum
Description: The effect of (3i) on the hepatic stage of P. falciparum was next studied in order to know if (3i) was active against another stage of P. falciparum cycle. Cryopreserved primary human hepatocytes were infected with 30,000 freshly extracted P. falciparum sporozoites and simultaneously treated with a dose range (0.9–30 µM) of (3i). Atovaquone (ATQ) was used as a positive parasite-killing control at 25 nM.
P. falciparum (NF135 strain) sporozoites were isolated by dissection of the salivary glands of infected A. stephensi 14–21 days after an infective blood meal (Department of medical microbiology, University Medical Centre, St Radboud, Nijmegen Netherland). All infected salivary glands were removed by hand dissection, crushed in a potter for sporozoites isolation, and filtrated through a 40 μm filter to remove mosquito debris (Cell Strainer, BD BioSciences, Franklin Lakes, NJ, USA). The sporozoites were counted using a disposable Glasstic microscope slide (KOVA, Garden Grove, CA, USA).
One day before hepatocyte thawing, 96-well plates were coated by a Corning®® collagen solution (50 µg/mL rat tail type I collagen in 0.02N acid acetic) over night at room temperature. The next day, the wells were washed twice by PBS solution. Cryopreserved primary human hepatocytes (LONZA, Basel, Swiss) were seeded in 96-well plates with a pre-determined seeding dose that gave a single dense layer of attached hepatocytes. Four days post-seeding, each plate well was infected with 30,000 freshly extracted Plasmodium falciparum sporozoites. […]
Hepatocyte cultures were fixed with 4% paraformaldehyde solution (PFA, Invitrogen) for 10 min. […] Images were analyzed and prepared with ImageJ software. Apicoplast morphology was observed and quantified by eye under a confocal microscope.
Upon immunostaining of parasites, the study plates were scanned using a CellInsight high-content screening platform equipped with the Studio HCS software (Thermo Fisher Scientific, Waltham, MA, USA). […] The number of host hepatocyte nuclei per well was counted by the system as a measure of toxicity of 3i towards the liver cells. […]

[3] = tested on: S. typhimurium strains (TA97a, TA98, TA100, TA102); test: Ames test; assay type: cell-based, Salmonella typhimurium; settings: 48 h; 5 mM and 25 mM, w/o and w/ S9 mix; four S. typhimurium strains
Description: Nevertheless, the evaluation of the mutagenicity of compound (3i) was carried out using the Ames test on four S. typhimurium strains at 5 mM and 25 mM (four doses per concentrations: 2, 3, 4, 5 µL/plate for assay without S9 mix and 4, 6, 8, 10 µL/plate for assay with S9 mix).
Compounds were assessed for mutagenicity by a modified version of the liquid incubation assay of the classical Ames test at five concentrations (25–125 nM). Salmonella tester strains (TA97a: Acridine ICR191, TA98: 2,4,7 trinitrofluorenone, TA100: Sodium Azide and TA102: Mitomycine C) as positive control w/o S9 mix and benzo[alpha]pyrene as positive control w/S9 mix) were grown overnight in a nutrient broth n_2 (Oxoid, Dardilly, France). After this period, products dissolved in DMSO (Sigma) were added to 0.1 mL of culture and incubated for 1 h at 37 °C with shaking. Each sample was assayed in duplicate. After incubation, 2 mL of molten top agar were mixed gently with the pre-incubated solution and poured onto Vogel–Bonner minimal agar plates. After 48 h at 37 °C, the number of spontaneous and drug-induced revertants per plate was determined for each dose with a laser bacterial colony counter (laser bacterial colony counter 500A, Interscience). A product was considered mutagenic when it induced a two-fold increase in the number of revertants, compared with the spontaneous frequency (negative control). […]

With O=[N+]([O-])c1ccc(Oc2nc3ccccc3nc2C(Cl)(Cl)Cl)cc1 [3i, 2-(4-Nitrophenoxy)-3-trichloromethylquinoxaline] the “Parasite growth over three life cycles (ratio treated/untreated)” value [1] was “drastic reduction in the parasite growth within the first life cycle”, the “Effect on exoerythrocytic forms (EEF or schizont) size and numbers” value ([2]; 3i 0.9-30 µM, ATQ 25 nM, 6 or 12 days post-infection) was “not observe a significant effect on parasite growth; also recorded: no effect” and the “Effect on the apicoplast in the hepatic stage” value ([2]; up to 30 µM, day 6 post-infection) was “quite not affected”. The “Ames test result (mutagenicity)” value [3] was “not genotoxic; also recorded: not mutagenic in vitro; also recorded: negative”.
